# Results taken from US20130071854A1, “METHODS FOR THE IDENTIFICATION AND CHARACTERIZATION OF HDAC INTERACTING COMPOUNDS” (priority 2009, published 2013).
# Where two headings read alike, the source gives them in different places.
# What was measured:
# MIER3 = assay: Chemoproteomic binding profiling, K562 cell extract, SAHA/ITF2357 probe matrix (Kd app), ELSA (ELM-SANT) domain protein; set-up: species or system human; conditions: ELSA (ELM-SANT) domain proteins
# [1] = target: T1, non-HDAC targets (e.g. BZW2, ISOC2, aldehyde dehydrogenases) (Homo sapiens, UniProt P16152); assay: Chemoproteomic binding profiling, K562 cell extract, SAHA/ITF2357 probe matrix (Kd app); conditions: protein CBR1; selected HDACi off-targets
# T1 construct: Kd^app CBR1; other: protein CBR1; selected HDACi off-targets
# T1 sequence (P16152 1-277): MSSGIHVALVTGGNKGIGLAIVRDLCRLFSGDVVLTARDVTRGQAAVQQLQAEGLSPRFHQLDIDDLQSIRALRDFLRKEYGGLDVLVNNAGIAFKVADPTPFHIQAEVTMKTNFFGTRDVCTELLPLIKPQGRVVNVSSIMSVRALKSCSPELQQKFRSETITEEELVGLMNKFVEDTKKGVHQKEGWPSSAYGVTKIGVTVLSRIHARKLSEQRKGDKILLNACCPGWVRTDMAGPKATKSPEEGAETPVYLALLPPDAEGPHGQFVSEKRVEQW
# [2] = target: T2, non-HDAC targets (e.g. BZW2, ISOC2, aldehyde dehydrogenases) (Homo sapiens, UniProt Q08209); assay: as above; conditions: protein PPP3CA; selected HDACi off-targets
# T2 construct: Kd^app PPP3CA; other: protein PPP3CA; selected HDACi off-targets
# [3] = target: T3, non-HDAC targets (e.g. BZW2, ISOC2, aldehyde dehydrogenases) (Homo sapiens, UniProt Q9Y6E2); assay: as above; conditions: protein BZW2; selected HDACi off-targets
# T3 construct: endogenous in cells; host or cells: K562 whole cell extract
# T3 sequence (Q9Y6E2 1-419): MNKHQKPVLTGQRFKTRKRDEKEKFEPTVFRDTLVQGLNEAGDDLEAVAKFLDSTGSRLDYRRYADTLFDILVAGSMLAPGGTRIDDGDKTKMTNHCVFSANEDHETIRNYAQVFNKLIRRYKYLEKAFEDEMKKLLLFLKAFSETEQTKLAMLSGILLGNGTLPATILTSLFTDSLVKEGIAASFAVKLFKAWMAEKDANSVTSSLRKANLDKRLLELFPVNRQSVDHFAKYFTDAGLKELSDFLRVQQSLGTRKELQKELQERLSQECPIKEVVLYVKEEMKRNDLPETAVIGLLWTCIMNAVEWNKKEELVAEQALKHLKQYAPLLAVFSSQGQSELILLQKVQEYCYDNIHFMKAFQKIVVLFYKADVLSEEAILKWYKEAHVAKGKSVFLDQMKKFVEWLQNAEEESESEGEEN
# [4] = target: T4, non-HDAC targets (e.g. BZW2, ISOC2, aldehyde dehydrogenases) (Homo sapiens, UniProt O94788); assay: as above; conditions: protein ALDH1A2; selected HDACi off-targets
# T4 construct: endogenous in cells; host or cells: K562 whole cell extract
# T4 sequence (O94788 1-518): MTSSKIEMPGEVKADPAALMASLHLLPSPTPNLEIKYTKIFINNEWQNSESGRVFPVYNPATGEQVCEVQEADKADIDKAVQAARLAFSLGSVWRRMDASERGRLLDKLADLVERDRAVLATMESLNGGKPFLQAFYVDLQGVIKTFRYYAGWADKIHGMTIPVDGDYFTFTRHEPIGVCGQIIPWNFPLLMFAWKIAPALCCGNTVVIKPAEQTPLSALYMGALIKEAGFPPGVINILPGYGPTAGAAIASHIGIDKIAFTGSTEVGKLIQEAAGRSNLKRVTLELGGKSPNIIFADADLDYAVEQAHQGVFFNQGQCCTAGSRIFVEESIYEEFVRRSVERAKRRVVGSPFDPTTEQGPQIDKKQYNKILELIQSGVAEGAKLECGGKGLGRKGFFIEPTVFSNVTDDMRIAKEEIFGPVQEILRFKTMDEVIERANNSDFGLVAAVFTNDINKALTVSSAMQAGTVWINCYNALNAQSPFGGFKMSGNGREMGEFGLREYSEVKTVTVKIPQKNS
# [5] = target: T5, non-HDAC targets (e.g. BZW2, ISOC2, aldehyde dehydrogenases) (Homo sapiens, UniProt Q96AB3); assay: as above; conditions: protein ISOC2; selected HDACi off-targets
# T5 construct: endogenous in cells; host or cells: K562 whole cell extract
# T5 sequence (Q96AB3 1-205): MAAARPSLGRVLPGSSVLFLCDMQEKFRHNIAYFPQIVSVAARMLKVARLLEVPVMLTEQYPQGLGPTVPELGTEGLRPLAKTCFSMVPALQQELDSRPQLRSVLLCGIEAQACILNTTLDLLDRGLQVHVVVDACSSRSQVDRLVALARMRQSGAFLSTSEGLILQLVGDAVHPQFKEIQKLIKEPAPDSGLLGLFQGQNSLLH
# EHMT2 = assay: Chemoproteomic binding profiling, K562 cell extract, SAHA/ITF2357 probe matrix (Kd app), ELSA (ELM-SANT) domain proteins group; set-up: species or system human; conditions: protein EHMT2
# MIER1 = assay: Chemoproteomic binding profiling, K562 cell extract, SAHA/ITF2357 probe matrix (Kd app), ELSA (ELM-SANT) domain protein; set-up: species or system human; conditions: ELSA (ELM-SANT) domain proteins
# CoREST complex = assay: Chemoproteomic binding profiling, K562 cell extract, SAHA/ITF2357 probe matrix (Kd app); set-up: species or system human
# [6] = tested on: T6, MiDAC complex (HDAC1/2, DNTTIP1, CDYL, MIDEAS); assay: as above; set-up: species or system human
# T6 construct: Kd^app MIDEAS; other: protein MIDEAS; MiDAC complex; Kd^app DNTTIP1; other: protein DNTTIP1
# Sin3 complex = assay: as above; set-up: species or system human
# NuRD complex = assay: as above; set-up: species or system human
# MIER2 = assay: Chemoproteomic binding profiling, K562 cell extract, SAHA/ITF2357 probe matrix (Kd app), ELSA (ELM-SANT) domain protein; set-up: species or system human; conditions: ELSA (ELM-SANT) domain proteins
# RERE = assay: as above; set-up: species or system human
# HDAC1 = target: T7, HDAC1 (Homo sapiens, UniProt Q13547); assay: Chemoproteomic binding profiling, K562 cell extract, SAHA/ITF2357 probe matrix (Kd app)
# T7 construct: used to probe endogenous HDACs in K562 whole cell extracts; endogenous in cells
# T7 sequence (Q13547 whole entry): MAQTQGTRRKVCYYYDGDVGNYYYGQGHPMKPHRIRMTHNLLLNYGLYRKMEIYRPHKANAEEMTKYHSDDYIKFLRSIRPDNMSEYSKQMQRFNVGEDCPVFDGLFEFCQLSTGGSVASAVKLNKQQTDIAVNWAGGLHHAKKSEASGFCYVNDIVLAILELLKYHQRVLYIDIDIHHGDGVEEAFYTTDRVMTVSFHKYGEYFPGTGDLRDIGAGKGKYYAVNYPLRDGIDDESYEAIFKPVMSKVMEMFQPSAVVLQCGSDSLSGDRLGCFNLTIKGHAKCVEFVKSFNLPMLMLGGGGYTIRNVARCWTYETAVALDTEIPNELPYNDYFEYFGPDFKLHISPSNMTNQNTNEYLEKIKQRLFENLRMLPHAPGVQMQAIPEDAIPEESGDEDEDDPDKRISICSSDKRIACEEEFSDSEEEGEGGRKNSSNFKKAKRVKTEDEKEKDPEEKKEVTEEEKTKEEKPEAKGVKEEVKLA
# acetylated tubulin = assay: Cell-based tubulin acetylation assay (immunofluorescence, western blotting); set-up: species or system human; conditions: K562 and HeLa cells; immunofluorescence and western blotting
# [7] = tested on: acetylated histones H3 and H4; assay: Cell-based histone acetylation assay (immunofluorescence, western blotting); set-up: species or system human; conditions: K562 and HeLa cells
smiles,measurement,setting,value
COc1ccc(Cn2ccc3ccc(C(=O)NO)cc32)cc1 [PCI-34051],Kd,MIER3,> 59.7 µM
same,Kd,[1],12.8 µM
same,Kd,[2],59.7 µM
same,Kd,[3],5.04 µM
same,Kd,[4],> 59.7 µM
same,Kd,[5],> 59.7 µM
same,Kd,EHMT2,> 59.7 µM
same,Kd,MIER1,> 59.7 µM
same,Kd,"CoREST complex; protein GSE1, CoREST complex, read-out: Kd^app GSE1",> 59.7 µM
same,Kd,"CoREST complex; protein HMG20A, CoREST complex, read-out: Kd^app HMG20A",> 59.7 µM
same,Kd,"CoREST complex; protein HMG20B, CoREST complex, read-out: Kd^app HMG20B",> 59.7 µM
same,Kd,"CoREST complex; protein PHF21A, CoREST complex, read-out: Kd^app PHF21A",> 59.7 µM
same,Kd,"CoREST complex; protein RCOR1, CoREST complex, read-out: Kd^app RCOR1",> 59.7 µM
same,Kd,"CoREST complex; protein RCOR2, CoREST complex, read-out: Kd^app RCOR2",> 59.7 µM
same,Kd,"CoREST complex; protein RCOR3, CoREST complex, read-out: Kd^app RCOR3",> 59.7 µM
same,Kd,"CoREST complex; protein ZMYM2, CoREST complex, read-out: Kd^app ZMYM2",> 59.7 µM
same,Kd,"CoREST complex; protein ZMYM3, CoREST complex, read-out: Kd^app ZMYM3",> 59.7 µM
same,Kd,"[6]; protein DNTTIP1, read-out: Kd^app DNTTIP1",> 59.7 µM
same,Kd,"[6]; protein MIDEAS, read-out: Kd^app MIDEAS",> 59.7 µM
same,Kd,"Sin3 complex; protein SAP30, read-out: Kd^app SAP30",> 59.7 µM
same,Kd,"Sin3 complex; protein SIN3A, read-out: Kd^app SIN3A",> 59.7 µM
same,Kd,"Sin3 complex; protein SIN3B, read-out: Kd^app SIN3B",> 59.7 µM
same,Kd,"NuRD complex; protein GATAD2A, NuRD complex, read-out: Kd^app GATAD2A",> 59.7 µM
same,Kd,"NuRD complex; protein GATAD2B, NuRD complex, read-out: Kd^app GATAD2B",> 59.7 µM
same,Kd,"NuRD complex; protein MBD2, NuRD complex, read-out: Kd^app MBD2",> 59.7 µM
same,Kd,"NuRD complex; protein MBD3, NuRD complex, read-out: Kd^app MBD3",> 59.7 µM
same,Kd,"NuRD complex; protein MTA1, NuRD complex, read-out: Kd^app MTA1",> 59.7 µM
same,Kd,"NuRD complex; protein MTA2, NuRD complex, read-out: Kd^app MTA2",> 59.7 µM
same,Kd,"NuRD complex; protein MTA3, NuRD complex, read-out: Kd^app MTA3",> 59.7 µM
same,Kd,MIER2,> 59.7 µM
same,Kd,"RERE; protein RERE, ELSA (ELM-SANT) domain proteins",> 59.7 µM
C/C=C1\NC(=O)[C@H]2CSSCC/C=C/[C@H](CC(=O)N[C@H](C(C)C)C(=O)N2)OC(=O)[C@H](C(C)C)NC1=O [romidepsin],Kd,HDAC1,0.01 µM
CC(=O)Nc1ccc(C(=O)Nc2ccccc2N)cc1 [tacedinaline],tubulin acetylation (in words),acetylated tubulin,did not affect tubulin
same,Kd,MIER3,171 µM
same,histone acetylation (in words),[7],elicited staining of acetylated histones
same,Kd,[1],> 85 µM
same,Kd,[2],> 85 µM
same,Kd,[3],> 85 µM
same,Kd,[4],> 85 µM
same,Kd,[5],> 85 µM
same,Kd,EHMT2,> 85 µM
same,Kd,MIER1,195 µM
same,Kd,CoREST complex; read-out: Kd^app GSE1,122 µM
same,Kd,CoREST complex; read-out: Kd^app HMG20A,139 µM
same,Kd,CoREST complex; read-out: Kd^app HMG20B,168 µM
same,Kd,CoREST complex; read-out: Kd^app RCOR1,114 µM
same,Kd,CoREST complex; read-out: Kd^app RCOR2,196 µM
same,Kd,CoREST complex; read-out: Kd^app RCOR3,159 µM
same,Kd,CoREST complex; read-out: Kd^app ZMYM2,> 85 µM
same,Kd,CoREST complex; read-out: Kd^app ZMYM3,> 85 µM
same,Kd,NuRD complex; read-out: Kd^app CHD4,> 85 µM
same,Kd,NuRD complex; read-out: Kd^app GATAD2A,423 µM
same,Kd,NuRD complex; read-out: Kd^app GATAD2B,306 µM
same,Kd,NuRD complex; read-out: Kd^app MBD2,> 85 µM
same,Kd,NuRD complex; read-out: Kd^app MBD3,265 µM
same,Kd,NuRD complex; read-out: Kd^app MTA1,152 µM
same,Kd,NuRD complex; read-out: Kd^app MTA2,226 µM
same,Kd,NuRD complex; read-out: Kd^app MTA3,263 µM
same,Kd,MIER2,184 µM
same,Kd,RERE,> 85 µM
